Reference: patent US6833456B2, “Indolyl-urea derivatives of thienopyridines useful as antiangiogenic agents, and methods for their use” (Agouron Pharmaceuticals, Inc., priority 2002, dated 2004)

Tests used:
[1] = biological target: T1, unphosphorylated VEGF-R2Δ50 (FLVK) (Homo sapiens, UniProt P35968, DEL940-989/E990V); experiment: VEGF-R2 coupled spectrophotometric assay, unphosphorylated construct (FLVK); assay type: biochemical; conditions: for inhibition at 0.05 µM: percent inhibition at 50 nM
T1 construct: VEGF-R2Δ50 contains residues 806-939 and 990-1171; made in house; host or cells: baculovirus/insect cell system
T1 sequence (P35968 with tags, fused parts or gaps DEL940-989/E990V limits assumed): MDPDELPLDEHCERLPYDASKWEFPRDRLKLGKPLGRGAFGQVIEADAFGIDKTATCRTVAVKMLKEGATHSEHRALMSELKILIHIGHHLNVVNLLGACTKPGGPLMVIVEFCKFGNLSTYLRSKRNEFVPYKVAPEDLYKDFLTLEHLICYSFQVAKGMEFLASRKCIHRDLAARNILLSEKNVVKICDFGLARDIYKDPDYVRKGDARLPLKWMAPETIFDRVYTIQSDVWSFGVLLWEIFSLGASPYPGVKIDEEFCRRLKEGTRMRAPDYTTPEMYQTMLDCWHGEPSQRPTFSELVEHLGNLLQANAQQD
Summary of the method: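 Human VEGF-R2Δ50 cytosolic kinase (residues 806-939/990-1171, E990V), baculovirus-expressed, unphosphorylated form. PK/LDH-coupled NADH oxidation at 340 nm with 20 mM poly(E4Y1), 3 mM ATP, 60 mM MgCl2, 2 mM MnCl2, 200 mM HEPES pH 7.5, 5-40 nM enzyme; Ki fitted by Morrison equation.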

Mouse PK assay = assay type: in vivo, B6 female mice; conditions: po; for AUC / Cmax: female, B6, mouse, plasma, 50 mg/kg; for Cmax: p.o., read-out: Mouse Cmax, po ng-h/mL
Summary of the method: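 Plasma levels were measured by HPLC with UV detection after acetonitrile precipitation, using extracted standards, in blood taken up to 4 h (0.5, 1, 2, 4 h) post-dose. Dosing: 50 mg/kg orally or intraperitoneally to two groups of four female B6 mice, vehicle PEG 400:acidified H2O 30:70 suspension.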

Compound | Ki [1] [nM] | inhibition at 0.05 µM [1] [%] | AUC (Mouse PK assay) [ng·h/mL] | Cmax (Mouse PK assay) [ng/mL] | Mouse Cmin, po (Mouse PK assay) [ng/mL]
COC[C@@H]1CCCN1C(=O)c1cc2nccc(Oc3ccc4c(c3)cc(C)n4C(=O)NCC#CCO)c2s1 [Example 4d, 5-(2-[(S)-2-(methoxymethyl)pyrrolidine-1-carbonyl]thieno[3,2-b]pyridin-7-yloxy)-2-methylindole-1-carboxylic acid (4-hydroxybut-2-ynyl)amide] | 0.41 | 91 | 4060 | 1960 | 54
Cc1cc2cc(Nc3ccnc4cc(-c5nccn5C)sc34)ccc2n1C(=O)NC1CC1 [Example 2d, 5-(2-[1-methyl-1H-imidazol-2-yl]thieno[3,2-b]pyridin-7-ylamino)-2-methylindole-1-carboxylic acid cyclopropylamide] | 0.32 | 98 | 457 | 411 | 0
Cc1cc2cc(Nc3ccnc4cc(C(=O)N5CCC[C@@H]5CO)sc34)ccc2n1C(=O)NC1CC1 [Example 1c, 5-[2-(2R-Hydroxymethyl-pyrrolidine-1-carbonyl)-thieno[3,2-b]pyridin-7-ylamino]-2-methyl-indole-1-carboxylic acid cyclopropylamide] | 0.67 | 98 | 616 | 317 | 7
CNC(=O)n1c(C)cc2cc(Nc3cccc4cc(C(=O)N5C[C@H](OC)C[C@H]5CO)sc34)ccc21 [Example 3f, 5-[2-((2S,4R)-2-Hydroxymethyl-4-methoxy-pyrrolidine-1-carbonyl)-benzo[b]thiophen-7-ylamino]-2-methyl-indole-1-carboxylic acid methylamide] | 10.5 | 57 | 44 | 24 | 2
C#CCNC(=O)n1c(C)cc2cc(Oc3ccnc4cc(C(=O)N5CC[C@@H](OC)C5)sc34)ccc21 [Example 4l, 5-[2-(3R-Methoxy-pyrrolidine-1-carbonyl)-thieno[3,2-b]pyridin-7-yloxy]-2-methyl-indole-1-carboxylic acid prop-2-ynylamide] | 0.19 | 96 | 321000 | 11300 | 9020
C#CCNC(=O)n1c(C)cc2cc(Oc3ccnc4cc(C(=O)N5CC[C@@H](O)C5)sc34)ccc21 [Example 4o, 5-[2-(3R-Hydroxy-pyrrolidine-1-carbonyl)-thieno[3,2-b]pyridin-7-yloxy]-2-methyl-indole-1-carboxylic acid prop-2-ynylamide] | 0.63 | 97 | 28500 | 5070 | 825

Further lines, results first:

Ki [1] [nM] | inhibition at 0.05 µM [1] [%] | AUC (Mouse PK assay) [ng·h/mL] | Cmax (Mouse PK assay) [ng/mL] | Mouse Cmin, po (Mouse PK assay) [ng/mL] | Compound
0.932 | 90 | 1100 | 371 | 43 | Cc1cc2cc(Oc3ccnc4cc(C(=O)N5CC[C@H](O)C5)sc34)ccc2n1C(=O)NCCO [Example 9k, 5-[2-(3S-Hydroxy-pyrrolidine-1-carbonyl)-thieno[3,2-b]pyridin-7-yloxy]-2-methyl-indole-1-carboxylic acid (2-hydroxy-ethyl)-amide]
0.32 | 99 | 1630 | 302 | 125 | C#CCNC(=O)n1c(C)c(Cl)c2c(F)c(Oc3ccnc4cc(C(=O)N5CC[C@H](O)C5)sc34)ccc21 [Example 6d, 3-Chloro-4-fluoro-5-[2-(3S-hydroxy-pyrrolidine-1-carbonyl)-thieno[3,2-b]pyridin-7-yloxy]-2-methyl-indole-1-carboxylic acid prop-2-ynylamide]
0.12 | 100 | 2560 | 1820 | 47 | CNC(=O)n1c(C)cc2c(F)c(Oc3ccnc4cc(C(=O)N5CCC[C@H]5CO)sc34)ccc21 [Example 5n, 4-Fluoro-5-[(2-{[(2S)-2-(hydroxymethyl)pyrrolidin-1-yl]carbonyl}thieno[3,2-b]pyridin-7-yl)oxy]-N,2-dimethyl-1H-indole-1-carboxamide]
